{"source": "patent US20240238218A1", "about": "“[…] A […] ACTIVE COMPOUND AND METHOD OF PREPARATION THEREOF” (GW Research Limited, priority 2021, published 2024)", "key": {"[1]": {"test_system": "mouse model of generalised seizure (tonic hind limb extensor convulsions)", "assay": "mini-MEST (maximal electroshock seizure threshold, minimal sample sizes) test in the mouse", "conditions": "2.5 mg/kg i.p., 30 min post dose", "experimental": "The maximal electroshock seizure threshold (MEST) test is widely utilized preclinically to evaluate pro- or anti-convulsant properties of test compounds (Loscher et al., 1991).\n(§1) In the MEST test the ability of a drug to alter the seizure threshold current required to induce hind limb tonic extensor convulsions is measured according to an “up and down” method of shock titration (Kimball et al., 1957). An increase in seizure threshold is indicative of anti-convulsant effect.\n(§2) The ability of a test compound to alter the stimulus intensity, expressed as current (mA), required to induce the presence of tonic hind limb extensor convulsions, is assessed in the MEST.\n(§3) All animals were weighed at the beginning of the study and randomly assigned to treatment groups based on a mean distribution of body weight across groups.\nThe first animal within a treatment group was given a shock at the expected or estimated CC50 current. For subsequent animals, the current was lowered or raised depending on the convulsions outcome from the preceding animal in log scale intervals.\n(§4) Data generated from each treatment group were used to calculate the CC50±SEM values for the treatment group.\nVehicle: (5% ethanol, 10% solutol in 85% Saline) was prepared as follows: 1 mL of ethanol, 2 mL of solutol were warmed to 60° C., in 17 mL of saline (1:2:17).\nThe test compound, described herein as Compound I, is as shown as Formula I. Test compound was administered at 50 mg/kg (i.p.) in a 1:2:17 ethanol:solutol:0.9% saline formulation.\n(§5) The data for each treatment group were recorded as the number of +'s and 0's at each current level employed and this information is then used to calculate the CC50 value (current required for 50% of the animals to show seizure behaviour)±standard error.\n(§6) Test compound effects were also calculated as percentage change in CC50 from the vehicle control group.\n(§7) Significant difference between drug-treated animals and controls were assessed according to Litchfield and Wilcoxon (1949)."}, "[2]": {"test_system": "mouse model of generalised seizure (tonic hind limb extensor convulsions)", "assay": "Maximal electroshock seizure threshold (MEST) test in the mouse", "conditions": "2.5 mg/kg i.p., 30 min post dose", "experimental": "The efficacy of the novel resorcinol according to the compound of Formula I was tested in a mouse model of generalised seizure, the maximal electroshock seizure threshold (MEST) test.\nas §1, §2, §3\nThe first animal within a treatment group was given a shock at the expected or estimated CC50 current. For subsequent animals, the current was lowered or raised depending on the convulsions outcome from the preceding animal, in intervals of 5 mA.\nas §4\nVehicle: (5% ethanol, 5% Kolliphor® EL, 90% Saline) was prepared as follows: 2 mL of ethanol, 2 mL of Kolliphor® EL were warmed to 60° C., in 36 mL of saline (1:1:18).\nThe test compound, described herein as Compound I, is as shown as Formula I. Test compound was administered at 1, 5, 20, 50, 100 and 200 mg/kg (i.p.) in a 1:2:17 ethanol:solutol:0.9% saline formulation.\nas §5, §6, §7"}, "[3]": {"test_system": "RjOrl: Swiss mice", "assay": "Mouse 6 Hz (44 mA) psychomotor seizure test", "assay_type": "in vivo", "conditions": "300 mg/kg i.p.", "text": "The 6 Hz Psychomotor Test, which detects anticonvulsant activity, follows that described by Brown et al. (J. Pharmacol. Exp. Ther. 107, 273-283, 1953).\nMale RjOrl: Swiss mice, 5 weeks old, weighing 28-38 g at the beginning of the experiment. Animals were acclimatized to the test facility for at least 5 days after delivery and randomly housed in groups of 3-4 in macrolon cages on wood litter with free access to food and water.\nBefore transcorneal stimulation, a drop of tetracaine solution (2%) was applied on each eye of the mouse for local anesthesia. Between 1-10 minutes later, at the pre-treatment time specified for the test compound, the mice were administered a rectangular current (44 mA, rectangular pulse: 0.2 ms pulse width, 3 s duration, 6 Hz) via corneal electrodes connected to a constant current shock generator.\nThe number of seizures as reflected by forelimb clonus were recorded immediately after current administration. Forelimb clonus was scored as absent (0=no forelimb clonus), mild (1=clonus with one forelimb) and strong (2=clonus with both forelimbs).\n[…] The experimenters were blinded to the treatment. The cages were randomly assigned to a treatment code, each designating one treatment group.\nCompound I was administered intraperitoneally at 20 and 50 mg/kg, 30 minutes before the test, and at 100 and 200 mg/kg, 60 minutes before the test and were compared with the vehicle control (5% ethanol, 10% […], 85% physiological saline).\nValproate (300 mg/kg i.p.), administered 30 minutes before the test, was used as reference substance and was compared with the vehicle control (5% ethanol, 10% Kolliphor HS15, 85% physiological saline).\n(§8) Test compound: Compound I dissolved in 5% ethanol, 10% Kolliphor HS15, 85% physiological saline.\n(§9) Vehicle control: 5% ethanol, 10% Kolliphor HS15, 85% physiological saline.\nReference: Valproate (300 mg/kg), dissolved in 5% ethanol, 10% Kolliphor HS15, 85% physiological saline.\nData were assumed to be non-normally distributed based on validation data, therefore non-parametric tests were utilized. Quantitative data (scores) with the test substance were analyzed by comparing treated groups with the corresponding vehicle control using Kruskal-Wallis test with Dunn's multiple comparisons test when the Kruskal-Wallis Test was significant. Quantitative data with the reference substance was analysed using Mann-Whitney U test."}, "[4]": {"test_system": "DBA/2 mice", "assay": "DBA/2 mouse audiogenic seizure test", "assay_type": "in vivo", "conditions": "180 mg/kg i.p.", "text": "The DBA/2 audiogenic seizure test, which detects anticonvulsant activity, follows that described by Dürmüller et al. (NeuroReport, vol. 4, no. 6, pages 683-686, 1993).\n60 male DBA/2 mice (3-4 weeks old) were included in the experiment (weight range 8-11 g at the beginning of the experiment). Animals were acclimatized to the test facility for 1 day after delivery and randomly housed in groups of 5 in macrolon cages on wood litter with free access to food and water.\nMice were individually transferred (at 3-5 minutes intervals) from the preparation room into an adjacent experimental room and body temperature was measured using a rectal thermometer. Immediately after, they were placed in a Plexiglas jar (Diameter=40 cm; Height=35 cm) mounted with an electric bell. Upon activating the bell, the occurrences and latencies to wild running fits, clonic and tonic seizures were measured. Deaths were also recorded. The bell was activated until a tonic seizure occured or for a maximum of 60 seconds.\nThe experiment included 6 groups (10 mice were studied per group). Experimenters were blinded to the treatment groups.\nThe test substance was evaluated at 4 doses, administered i.p. (10 mL/kg) 30 or 60 minutes before the test, and compared with a vehicle control group. Doses and pre-treatment times were based on previous pharmacokinetic data.\nas §8, §9\nReference: Valproate (180 mg/kg), dissolved in 5% ethanol, 10% Kolliphor HS15, 85% physiological saline.\nQuantitative data (latencies) with the test substance were analyzed by comparing treated groups with vehicle control using Kruskal-Wallis test followed by Dunn's multiple comparisons test. Quantitative data with the reference substance were analyzed using Mann-Whitney U test.\nQuantal data (frequencies) were analyzed by comparing treated groups with vehicle control using Fisher's Exact Probability tests."}, "[5]": {"conditions": "30 min before the test, bell maximum 60 seconds"}, "[6]": {"conditions": "30 min before the test, listed as valproate"}}}
{"compound": "CN1C(=O)CN=C(c2ccccc2)c2cc(Cl)ccc21", "note": "[Diazepam, diazepam, reference compound]", "values": [{"measurement": "% change from vehicle (CC50)", "setting": "[1]", "result": 279, "unit": "%"}, {"measurement": "% change from vehicle (CC50)", "setting": "[2]", "result": 449, "unit": "%"}]}
{"compound": "CCCC(CCC)C(=O)O", "note": "[Valproate, reference compound]", "values": [{"measurement": "Slight sedation (mice affected)", "setting": "[3]", "result": "One mouse out of the 15 tested"}, {"measurement": "Forelimb clonus, Compared with Vehicle B (i.p.) %", "setting": "[3]; 30 minutes before the test", "result": "−88", "unit": "%"}, {"measurement": "Forelimb clonus, Compared with Vehicle B (i.p.) %", "setting": "[3]; 30 minutes before the test, listed as valproate", "result": "−88", "unit": "%"}, {"measurement": "Forelimb clonus (mean ± s.e.m.)", "setting": "[3]; 30 minutes before the test, score 0-2", "result": "0.1 ± 0.1"}, {"measurement": "Adverse signs", "setting": "[4]", "result": "No adverse signs were noted"}, {"measurement": "Clonic convulsion, Presence, %", "setting": "[4]; 30 min before the test", "result": 0, "unit": "%"}, {"measurement": "Clonic convulsion, Presence, Compared with Vehicle (i.p.) %", "setting": "[4]; 30 min before the test", "result": "−100", "unit": "%"}, {"measurement": "Clonic convulsion, Presence, Total", "setting": "[4]; 30 min before the test", "result": "0/10"}, {"measurement": "Death, Presence, %", "setting": "[4]; 30 min before the test", "result": 0, "unit": "%"}, {"measurement": "Death, Presence, Compared with Vehicle (i.p.) %", "setting": "[4]; 30 min before the test", "result": "−100", "unit": "%"}, {"measurement": "Death, Presence, Total", "setting": "[4]; 30 min before the test", "result": "0/10"}, {"measurement": "Tonic extension, Presence, %", "setting": "[4]; 30 min before the test", "result": 0, "unit": "%"}, {"measurement": "Tonic extension, Presence, Compared with Vehicle (i.p.) %", "setting": "[4]; 30 min before the test", "result": "−100", "unit": "%"}, {"measurement": "Tonic extension, Presence, Total", "setting": "[4]; 30 min before the test", "result": "0/10"}, {"measurement": "Wild running, Presence, %", "setting": "[4]; 30 min before the test", "result": 0, "unit": "%"}, {"measurement": "Wild running, Presence, Compared with Vehicle (i.p.) %", "setting": "[4]; 30 min before the test", "result": "−100", "unit": "%"}, {"measurement": "Wild running, Presence, Total", "setting": "[4]; 30 min before the test", "result": "0/10"}, {"measurement": "Clonic convulsion, Latency (s) Median", "setting": "[4]; [5]", "result": 60.0, "unit": "s"}, {"measurement": "Tonic extension, Latency (s) Median", "setting": "[4]; [5]", "result": 60.0, "unit": "s"}, {"measurement": "Wild running, Latency (s) Median", "setting": "[4]; [5]", "result": 60.0, "unit": "s"}, {"measurement": "Clonic convulsion, Presence, Compared with Vehicle (i.p.) %", "setting": "[4]; [6]", "result": "−100", "unit": "%"}, {"measurement": "Tonic extension, Presence, Compared with Vehicle (i.p.) %", "setting": "[4]; [6]", "result": "−100", "unit": "%"}, {"measurement": "Wild running, Presence, Compared with Vehicle (i.p.) %", "setting": "[4]; [6]", "result": "−100", "unit": "%"}]}
